Experimental data published in patent US12643887B2, “Heterocyclic derivatives with cardiomyocyte proliferation activity for treatment of heart diseases” (Tongji University, priority 2019, dated 2026).

How the values were obtained:
[1] = test system: Neonatal Rat Ventricular Myocytes (NRVMs); experiment: Myocyte proliferation assay (EdU assay) in neonatal rat ventricular myocytes; format: cell-based; conditions: growth relative to blank myocyte growth without compound added; for Avg 1 uM (average myocyte proliferation): compound 1 uM; for Avg 3 uM (average myocyte proliferation): compound 3 uM; for Avg 10 uM (average myocyte proliferation): compound 10 uM
Description: 1. Isolation of and Culture Neonatal Rat Ventricular Myocytes (NRVMs)
Ventricles from neonatal rats were separated from the atria, cut into small pieces (about 2×2 mm^2) and then dissociated in Ca2+-free HBSS containing 0.125 mg ml-1 trypsin (Gibco), 10 μg ml-1 DNase II (Sigma) and 0.1 mg ml-1 collagenase type IV (Sigma). The digestion was carried out under constant stirring at 37° C. for 5 min. The supernatant was collected with FBS (Gibco) after each digestion period. After digestion, the collected supernatant was centrifuged at 1000 g for 10 min at room temperature, and then cell pellets were resuspended in DMEM (Gibco) supplemented with 10% FBS and with 100 uM 5-bromo-2′-deoxyuridine (Sigma). The resuspended cells were passed through a cell strainer ([…], BD Falcon) and seeded onto 100-mm plastic dishes for 2 h at 37° C. in a 5% CO2 to remove fibroblasts, the supernatant was then collected and plated onto 1% gelatin (Sigma)-coated dishes. 24 h after the seeding, the medium was changed to DMEM (Gibco) containing 2% FBS (Gibco), 1% insulin-transferrin-selenium (ITS; Gibco), 1% Penicillin-Streptomycin (Gibco). After 24 hours of low serum culture, remove the medium with DMEM (Gibco) containing 6% FBS (Gibco), 1% insulin-transferrin-selenium (ITS; Gibco), 1% Penicillin-Streptomycin (Gibco), different concentrations of compounds (the compounds were pre-diluted in the medium and the drug concentration was 10 uM, 3 uM, 1 uM, fully mixed). After 36 h add Edu substrate (Invitrogen) according to the manufacturer's guidelines, and then after 12 h cell can be used.
• 2.1. Immobilization: Remove the medium and fix the cells with […] in 200 ul (whichever is covered) for 15 min and wash the cells twice with 500 ul of PBS for 5 min each time. • 2.2. Broken membrane: Add 200 ul of 0.3% Triton-X 100 (diluted in PBS) to each well, incubate for 10-15 min at room temperature (the time should not be too long), and wash the cells twice with 500 ul of PBS for 5 min each time. • 2.3. Blocking: Add 200 ul of 10% normal goat serum (diluted with 0.1% PBST) to each well, incubate for 1 h at room temperature, and wash twice with 500 ul of 0.1% PBST for 5 min each time. • 2.4. Primary antibody: dilute the primary antibody (abcam, ab8295) to blocking solution at a ratio of 1:200, add 100 ul per well, incubate for 1 h at room temperature (may be slightly longer than 2-3 h), wash the cells twice with 500 ul 0.1% PBST for 5 min each time. • 2.5. Secondary antibody: Dilute the fluorescently labeled secondary antibody (abcam, ab150117) into blocking solution at a ratio of 1:200, add 100 ul per well, incubate for 1 h at room temperature (the time should not be too long), wash the cells twice with 0.1% PBST for 5 min each time, pay attention to the whole process. Protected from light. • 2.6. Edu staining (Invitrogen C10338) • 2.6.1 Prepare Click-iT® reaction cocktail according to Table 3. It was important to add the ingredients in the order listed in the table; otherwise, the reaction would not proceed optimally. Use the Click-iT® reaction cocktail within 15 minutes of preparation.
• 2.6.2 Add 0.1 mL of Click-iT® reaction cocktail to each well containing a coverslip. Rock the plate briefly to ensure that the reaction cocktail is distributed evenly over the coverslip. • 2.6.3 Incubate the plate for 30 minutes at room temperature, protected from light. • 2.6.4 Remove the reaction cocktail, then wash the cells twice with 0.1% PBST for 5 min each time. • 2.7. DAPI staining: DAPI stain was diluted to PBS at a ratio of 1:1000, 100 ul per well, incubated for 30 min at room temperature, and the cells were washed twice with PBS for 5 min each. 3. Data Analysis
We used Molecular Devices' Image Xpress Micro Confocal for high-throughput photo and data analysis.

[2] = molecular target: T1, human HIPK2 (Homo sapiens, UniProt Q9H2X6); experiment: HIPK2 enzyme assay (ADP-Glo); format: biochemical; conditions: ADP-Glo, ATP 5 μM; read-out: HIPK2 IC50
T1 construct: Recombinant human HIPK2 (1-640); GST (N); purchased SignalChem H04-11BG; host or cells: Sf9 insect cells
Description: The ability of compounds to inhibit human HIPK2 kinase activities was determined using a commercially available ADP-Glo™ Kinase Assay kit (Promega, Cat #V9102) according to the manufacturer's protocol.
Recombinant human HIPK2 (1-640) (expressed in Sf9 insect cells with an N-terminal GST tag) was purchased from SignalChem (Cat #H04-11BG). Recombinant full length human MBP (expressed in E. Coli cells with an N-terminal GST tag) was purchased from SignalChem (Cat #M42-54G). This assay, run in a 384-well plate format, is a generic method for measuring kinase activities using an ADP-Glo Kinase Assay Kit. The basic assay procedure involves two steps: (1) Enzymatic step: inhibitors are incubated with the kinase and then ATP (included in the ADP-Glo Kinase Assay Kit) and the MBP protein are added to start the enzymatic reaction; (2) Detection step: after the kinase reaction, first ADP-Glo™ Reagent is added to terminate the kinase reaction and deplete the remaining ATP. Second, the Kinase Detection Reagent is added to simultaneously convert ADP to ATP and allow the newly synthesized ATP to be measured using a luciferase/luciferin reaction. The light generated is measured using a luminometer.
Briefly, HIPK2 (1 nM) in the enzymatic buffer solutions (40 mM Tris, pH 7.5, 20 mM MgCl2, 0.1 mg/ml BSA, 50 μM DTT) were mixed with various concentrations of inhibitors (dissolved in 100% DMSO). These solutions were incubated for 30 minutes at 25° C., and subsequently a mixture of substrate peptide and ATP was added with the final peptide and ATP concentrations at 0.05 mg/ml and 5 μM, respectively. The final reaction mixture of enzyme-substrate-ATP-compound was incubated for 90 minutes at 25° C.
Afterwards ADP-Glo™ Reagent was added and the mixture was incubated at 25° C. for 60 minutes. Then Kinase Detection Reagent was added, and the final mixture was incubated at 25° C. for 60 minutes. The luminescence signal of the final solution was measured on an Envision instrument (PerkinElmer). The percent (%) inhibition at each concentration of a compound is calculated relative to the luminescence signal in the Max and Min control wells contained within each assay plate. […] The concentrations and percent inhibition values for a test compound are plotted and the concentration of the compound required to achieve 50% inhibition (IC50) is determined with a four-parameter logistic dose response equation.

T1 sequence (Q9H2X6 1-640): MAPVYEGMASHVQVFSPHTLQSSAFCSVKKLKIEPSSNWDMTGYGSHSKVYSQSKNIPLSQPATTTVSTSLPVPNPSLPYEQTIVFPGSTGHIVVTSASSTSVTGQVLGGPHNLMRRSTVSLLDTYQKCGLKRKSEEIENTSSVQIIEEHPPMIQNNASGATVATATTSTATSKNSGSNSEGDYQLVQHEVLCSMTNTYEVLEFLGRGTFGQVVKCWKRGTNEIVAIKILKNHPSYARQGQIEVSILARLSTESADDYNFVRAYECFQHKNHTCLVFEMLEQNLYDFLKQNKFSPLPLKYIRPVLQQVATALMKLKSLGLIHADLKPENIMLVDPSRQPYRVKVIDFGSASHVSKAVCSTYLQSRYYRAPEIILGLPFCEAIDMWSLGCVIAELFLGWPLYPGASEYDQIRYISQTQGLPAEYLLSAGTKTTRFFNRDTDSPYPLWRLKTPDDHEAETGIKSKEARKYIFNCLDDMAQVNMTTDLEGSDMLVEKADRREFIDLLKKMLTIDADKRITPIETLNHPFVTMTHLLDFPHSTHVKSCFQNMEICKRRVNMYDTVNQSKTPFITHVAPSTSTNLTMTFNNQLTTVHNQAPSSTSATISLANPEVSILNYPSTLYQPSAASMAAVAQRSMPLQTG

SMILES	Avg 1 uM (average myocyte proliferation) [1]	Avg 3 uM (average myocyte proliferation) [1]	Avg 10 uM (average myocyte proliferation) [1]	IC50 [2]
CN(C1=N/C(=C\c2ccc3c(c2)OCO3)C(=O)N1)c1ccccc1 [Example 1, (Z)-5-(benzo[d][1,3]dioxol-5-ylmethylene)-2-(methyl(phenyl)amino)-3,5-dihydro-4H-imidazol-4-one]	* (<10% growth relative to blank myocyte growth without compound added.)	*** (>50%)	** (10%-50%)	> 10 µM
O=C1/C(=C/c2ccc3c(c2)OCO3)N=C(N(Cc2ccccc2)c2ccccc2)N1Cc1ccccc1 [Example 2, (Z)-5-(benzo[d][1,3]dioxol-5-ylmethylene)-3-benzyl-2-(benzyl(phenyl)amino)-3,5-dihydro-4H-imidazol-4-one]	* (<10% growth relative to blank myocyte growth without compound added.)	* (<10% growth relative to blank myocyte growth without compound added.)	*** (>50%)	> 10 µM
CN1C(=O)/C(=C/c2ccc3c(c2)OCO3)N=C1N(C)c1ccccc1 [Example 3, (Z)-5-(benzo[d][1,3]dioxol-5-ylmethylene)-3-methyl-2-(methyl(phenyl)amino)-3,5-dihydro-4H-imidazol-4-one]	* (<10% growth relative to blank myocyte growth without compound added.)	* (<10% growth relative to blank myocyte growth without compound added.)	* (<10% growth relative to blank myocyte growth without compound added.)	> 10 µM
O=C1NC(Nc2ccccc2)=N/C1=C\c1ccc2ncsc2c1 [Example 6, (Z)-5-(benzo[d]thiazol-6-ylmethylene)-2-(phenylamino)-3,5-dihydro-4H-imidazol-4-one]	*** (>50%)	** (10%-50%)	* (<10% growth relative to blank myocyte growth without compound added.)	0.1 to 1 µM
CN(C1=N/C(=C\c2ccc3ncsc3c2)C(=O)N1)c1ccccc1 [Example 7, (Z)-5-(benzo[d]thiazol-6-ylmethylene)-2-(methyl(phenyl)amino)-3,5-dihydro-4H-imidazol-4-one]	* (<10% growth relative to blank myocyte growth without compound added.)	** (10%-50%)	* (<10% growth relative to blank myocyte growth without compound added.)	1 to 10 µM
CN(C1=N/C(=C\c2ccc3c(c2)OCCO3)C(=O)N1)c1ccccc1 [Example 8, (Z)-5-((2,3-dihydrobenzo[b][1,4]dioxin-6-yl)methylene)-2-(methyl(phenyl)amino)-3,5-dihydro-4H-imidazol-4-one]	** (10%-50%)	* (<10% growth relative to blank myocyte growth without compound added.)	** (10%-50%)	> 10 µM
O=C1NC(Nc2ccccc2)=N/C1=C\c1ccc(=O)[nH]c1 [Example 9, (Z)-5-((5-oxo-2-(phenylamino)-1,5-dihydro-4H-imidazol-4-ylidene)methyl)pyridin-2(1H)-one]	* (<10% growth relative to blank myocyte growth without compound added.)	** (10%-50%)	** (10%-50%)	> 10 µM
O=C1NC(N(CC2CC2)c2ccccc2)=N/C1=C\c1ccc2c(c1)OCO2 [Example 10, (Z)-5-(benzo[d][1,3]dioxol-5-ylmethylene)-2-((cyclopropylmethyl)(phenyl)amino)-3,5-dihydro-4H-imidazol-4-one]	** (10%-50%)	* (<10% growth relative to blank myocyte growth without compound added.)	*** (>50%)	> 10 µM
CN(CC1CC1)C1=N/C(=C\c2ccc3c(c2)OCO3)C(=O)N1 [Example 11, (Z)-5-(benzo[d][1,3]dioxol-5-ylmethylene)-2-((cyclopropylmethyl)(methyl)amino)-3,5-dihydro-4H-imidazol-4-one]	** (10%-50%)	** (10%-50%)	*** (>50%)	> 10 µM
COc1ccc(N(C)C2=N/C(=C\c3ccc4c(c3)OCO4)C(=O)N2)cc1 [Example 12, (Z)-5-(benzo[d][1,3]dioxol-5-ylmethylene)-2-((4-methoxyphenyl)(methyl)amino)-3,5-dihydro-4H-imidazol-4-one]	* (<10% growth relative to blank myocyte growth without compound added.)	** (10%-50%)		> 10 µM
O=C1NC(N(CCO)c2ccccc2)=N/C1=C\c1ccc2c(c1)OCO2 [Example 13, (Z)-5-(benzo[d][1,3]dioxol-5-ylmethylene)-2-((2-hydroxyethyl)(phenyl)amino)-3,5-dihydro-4H-imidazol-4-one]	* (<10% growth relative to blank myocyte growth without compound added.)	** (10%-50%)		1 to 10 µM
